Test results published in ChEMBL document CHEMBL6103554, “Neratinib derivative 7A induces apoptosis in colon cancer cells via the p53 pathway” (Bioorg Med Chem Lett, 2025).
Calls of active or inactive are those of the source. The rule behind the calls is not given here.

Columns and labels:
HCT-116 [1] = assay: Induction of DNA damage in human HCT-116 cells assessed as upregulation of gamma-H2AX level at 10 uM by immunoblotting analysis; assay type: functional, cell-based
HCT-116 [2] = assay: Induction of DNA damage in human HCT-116 cells assessed as upregulation of gamma-H2AX level incubated for 24 hrs by immunoblotting analysis; assay type: functional, cell-based; conditions: dose 2.5-10 µM
HeLa = assay: Cytotoxicity against human HeLa cells assessed as inhibition rate incubated for 48 hrs by MTT; assay type: functional, cell-based
HCT-116 [3] = assay: Inhibition of cell migration in human HCT-116 cells assessed as repair capacity at 5 to 10 uM measured upto 48 hrs by scratch assay; assay type: functional, cell-based; conditions: dose 5-10 µM
HCT-116 [4] = assay: Induction of DNA damage in human HCT-116 cells assessed as downregulation of BCL2 level at 10 uM incubated for 24 hrs by immunoblotting analysis; assay type: functional, cell-based
HCT-116 [5] = assay: Induction of DNA damage in human HCT-116 cells assessed as upregulation of p53 level at 10 uM incubated for 24 hrs by immunofluorescence based analysis; assay type: functional, cell-based
HCT-116 [6] = assay: Induction of DNA damage in human HCT-116 cells assessed as upregulation of p21 level incubated for 24 hrs by PCR analysis; assay type: functional, cell-based; conditions: dose 2.5-10 µM
HCT-116 [7] = assay: Inhibition of cell adhesion in human HCT-116 cells at 5 uM; assay type: functional, cell-based
A498 = assay: Cytotoxicity against human A498 cells assessed as inhibition rate incubated for 48 hrs by MTT; assay type: functional, cell-based; conditions: A498, 48 h
HCT-116 [8] = assay: Activation of TNFR-mediated TNF signaling pathway in human HCT-116 cells by GSEA analysis; assay type: cell-based; conditions: filed as activator
HCT-116 [9] = assay: Inhibition of cell proliferation in human HCT-116 cells at 10 uM by colony formation assay relative to control; assay type: functional, cell-based
MDA-MB-231 = assay: Cytotoxicity against human MDA-MB-231 cells assessed as inhibition rate incubated for 48 hrs by MTT; assay type: functional, cell-based; conditions: MDA-MB-231, 48 h
HCT-116 [10] = assay: Inhibition of cell adhesion in human HCT-116 cells at 10 uM; assay type: functional, cell-based
HCT-116 [11] = assay: Antitumor activity against human HCT116 cells xenografted in chick embryo chorioallantoic membrane assessed as reduction in angiogenesis by CAM assay; assay type: functional, cell-based; conditions: dose 5-10 µM
HCT-116 [12] = assay: Antitumor activity against human HCT116 cells xenografted in chick embryo chorioallantoic membrane assessed as reduction in tumor volume by CAM assay; assay type: functional, cell-based; conditions: dose 5-10 µM
HCT-116 [13] = assay: Induction of DNA damage in human HCT-116 cells assessed as upregulation of BAX level at 10 uM incubated for 24 hrs by immunoblotting analysis; assay type: functional, cell-based
HCT-116 [14] = assay: Induction of DNA damage in human HCT-116 cells assessed as upregulation of p53 level at 10 uM incubated for 24 hrs by immunoblotting analysis; assay type: functional, cell-based
HCT-116 [15] = assay: Cytotoxicity against human HCT-116 cells assessed as inhibition rate incubated for 48 hrs by MTT; assay type: functional, cell-based; conditions: HCT-116, 48 h
HCT-116 [16] = assay: Induction of DNA damage in human HCT-116 cells assessed as upregulation of p53 level at 5 uM incubated for 24 hrs by immunofluorescence based analysis; assay type: functional, cell-based
[17] = target: Cellular tumor antigen p53 (Homo sapiens) (UniProt P04637); assay: Activation of p53 signaling pathway in human HCT-116 cells by GSEA analysis; assay type: cell-based; conditions: filed as activator
Chain of Cellular tumor antigen p53 (Homo sapiens) (P04637 whole entry, looked up): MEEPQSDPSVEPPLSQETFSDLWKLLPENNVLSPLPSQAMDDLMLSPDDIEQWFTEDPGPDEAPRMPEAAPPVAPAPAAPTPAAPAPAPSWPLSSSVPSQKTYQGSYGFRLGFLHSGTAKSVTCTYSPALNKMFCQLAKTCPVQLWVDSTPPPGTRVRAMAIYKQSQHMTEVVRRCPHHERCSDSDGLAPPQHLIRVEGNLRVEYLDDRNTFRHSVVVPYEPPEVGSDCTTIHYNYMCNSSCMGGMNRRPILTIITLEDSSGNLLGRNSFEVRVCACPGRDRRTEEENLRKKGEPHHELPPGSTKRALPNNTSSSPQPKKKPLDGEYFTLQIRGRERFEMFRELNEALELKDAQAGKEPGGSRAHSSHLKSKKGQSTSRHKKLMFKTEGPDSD

HCT-116 [18] = assay: Inhibition of cell invasion in human HCT-116 cells at 5 uM by Transwell assay; assay type: functional, cell-based

Compound: O=C(Nc1ccc(OCc2ccccn2)c(Cl)c1)c1ccc(CN2CCN(C(=O)C3CC3)CC2)cc1
- Activity (HCT-116 [1]): Time-dependent-effect
- Activity (HCT-116 [2]): Dose-dependent-effect
- IC50 (HeLa): 13.5 µM
- Activity (HCT-116 [3]): Dose-dependent-effect; Stronger Inhibition
- Activity (HCT-116 [4]): Active
- Activity (HCT-116 [5]): Active
- Activity (HCT-116 [6]): Dose-dependent-effect
- inhibition (HCT-116 [7]): Active
- IC50 (A498): 18.5 µM
- Activity (HCT-116 [8]): Active
- inhibition (HCT-116 [9]): Active; Significantly Decreased Colony Formation
- IC50 (MDA-MB-231): 17.8 µM
- inhibition (HCT-116 [10]): Active
- Activity (HCT-116 [11]): Dose-dependent-effect
- Activity (HCT-116 [12]): Dose-dependent-effect
- Activity (HCT-116 [13]): Active
- Activity (HCT-116 [14]): Active
- IC50 (HCT-116 [15]): 7.21 µM
- Activity (HCT-116 [16]): Active
- Activity [17]: Active
- inhibition (HCT-116 [18]): Active

Compound: CCOc1cc2ncc(C#N)c(Nc3ccc(OCc4ccccn4)c(Cl)c3)c2cc1NC(=O)/C=C/CN(C)C [NERATINIB]
- IC50 (HeLa): 18.2 µM
- Activity (HCT-116 [3]): Active
- IC50 (A498): 19.5 µM
- inhibition (HCT-116 [9]): Active
- IC50 (MDA-MB-231): 27.7 µM
- inhibition (HCT-116 [10]): Active
- IC50 (HCT-116 [15]): 17.3 µM
